This is an account of results in patent EP4786459A1, “BENZENE RING-CONTAINING COMPOUND HAVING ANALGESIC EFFECT, PREPARATION METHOD THEREFOR, AND USE THEREOF” (West China Hospital, Sichuan University, priority 2023, dated 2025).

In data set [1] the test system is rats. The data set can be described thus: Loss of tail withdrawal reflex (LOTWR) in rats, single intravenous injection, dose escalation: potent analgesic effect and severe adverse reactions. As to conditions: Rattus norvegicus, single intravenous injection (tail vein), LOTWR lasting for 30 seconds as criterion, class symbol, read-out: The minimum effective dose. It counts as in vivo, SD rats. As to the method:
(§1) Using the loss of tail withdrawal reflex (LOTWR) in rats as an indicator, the potent analgesic effect of the compounds according to the present invention was evaluated.
(§2) 1.1 Experimental animals: Adult male SD rats weighing between 220-300 g were selected for the experiment. The rats were housed in sawdust-bedded cages with a temperature of 25±1°C, humidity ranging from 40% to 60%, and a 12-hour light/12-hour dark cycle. Each cage contained no more than 5 rats, with free access to water and food.
(§3) • (1) The compound of the present invention, along with the positive control drug remifentanil and the negative control (vehicle), were administered in fixed volumes. A dose escalation approach was employed to determine the minimum effective dose at which the compound of the present invention produces potent analgesic effects, as well as the minimum dose at which severe adverse reactions first appear. • (2) LOTWR lasting for 30 seconds was used as the criterion for generating potent analgesic effects. During the experiment, drugs were administered via the tail vein of rats, with a dosage volume of 0.6 mL per rat and a dosage rate of 0.02 mL/s. Subsequently, an alligator clip was applied at a distance of 1 cm from the base of the rat's tail, clamping once longitudinally and once transversely before being left in place. Meanwhile, the distal end of the alligator clip was continuously oscillated (30 times/min) to continuously generate stimulation. […] When all results were "no LOTWR" after 10 minutes of testing (5 trials), the test was stopped and recorded as "ineffective." • (3) All compounds would undergo a dose escalation for efficacy evaluation, starting from 1 mg/kg (due to the high potency of remifentanil, the lowest dose was set at 1 µg/kg), followed by 5 mg/kg, 10 mg/kg, 20 mg/kg, and so on (increasing by 20 mg/kg increments after 20 mg/kg). The dose escalation would be stopped when rats show signs of death, and the lowest effective dose and the lowest dose at which severe adverse reactions occur would be recorded throughout the process. In this study, severe adverse reactions are defined as apnea, generalized tonic rigidity, convulsions, opisthotonus, seizures, etc.
(§4) 1.3 Evaluation indicators: the minimum effective dose; the minimum dose resulting in serious adverse reactions; the safety therapeutic index = "the minimum dose resulting in serious adverse reactions" / "the minimum effective dose".

Experiment in data set [2]: as above
The class given is in vivo, SD rats. As to conditions: rat, in vivo, single intravenous injection, minimum dose resulting in serious adverse reactions / minimum effective dose, class symbol, read-out: The safety therapeutic index. As to the method:
as §1, §2, §3, §4

In the case of `Cc1ccc(CNC(=O)NCc2ccsc2)c(N(C)C)c1` [Example 1], the minimal effective dose in data set [1] is no more than 10 mg/kg. In addition, the selectivity ratio in data set [2] is 2 to 4.
Turning to `Cc1ccc(CNC(=S)NCc2ccsc2)c(N(C)C)c1` [Example 2, 1-(2-(dimethylamino)-4-methylbenzyl)-3-(thiophene-3-ylmethyl)thiourea], the minimal effective dose in data set [1] was no more than 10 mg/kg. In addition, the selectivity ratio in data set [2] is no more than 2.
The matching figures for `Cc1ccc(CNC(=N)NCc2ccsc2)c(N(C)C)c1` [Example 3, 1-(2-(dimethylamino)-4-methylbenzyl)-3-(thiophen-3-ylmethyl)guanidine]: no more than 10 mg/kg and 2 to 4.
The matching figures for `Cc1ccc(CNC(=NC#N)NCc2ccsc2)c(N(C)C)c1` [Example 4]: greater than 30 mg/kg and no more than 2.
The matching figures for `Cc1ccc(CNC(=O)OCc2ccsc2)c(N(C)C)c1` [Example 5]: no more than 10 mg/kg and 2 to 4.
Take `Cc1ccc(COC(=O)NCc2ccsc2)c(N(C)C)c1` [Example 6, 2-(dimethylamino)-4-methylbenzyl(thiophene-3-ylmethyl)carbamate]: the minimal effective dose in data set [1] was no more than 10 mg/kg. In data set [2], the selectivity ratio fell in the range of 2 to 4.
In the same order, the values of `Cc1ccc(CNC(=C[N+](=O)[O-])NCc2ccsc2)c(N(C)C)c1` [Example 7] are greater than 30 mg/kg and no more than 2.
The matching figures for `Cc1ccc(CNc2c(NCc3ccsc3)c(=O)c2=O)c(N(C)C)c1` [Example 8]: greater than 30 mg/kg and no more than 2.
In the same order, the values of `Cc1ccc(CNC(=O)NCc2ccoc2)c(N(C)C)c1` [Example 9] are 20 to 30 mg/kg and no more than 2.
In the case of `Cc1ccc(CNC(=O)NCc2cccs2)c(N(C)C)c1` [Example 10], the minimal effective dose in data set [1] is no more than 10 mg/kg. Besides, in data set [2], the selectivity ratio was greater than 4.
In the same order, the values of `Cc1ccc(CCNC(=O)NCc2ccsc2)c(N(C)C)c1` [Example 11, 1-(2-(dimethylamino)-4-methylphenethyl)-3-(thiophene-3-ylmethyl)urea] are no more than 10 mg/kg and 2 to 4.
In the same order, the values of `Cc1ccc(CNC(=O)NCCc2ccsc2)c(N(C)C)c1` [Example 12, 1-(2-(dimethylamino)-4-methylbenzyl)-3-(2-(thiophene-3-yl)ethyl)urea] are no more than 10 mg/kg and no more than 2.
As for `Cc1ccc(NC(=O)Nc2ccsc2)c(N(C)C)c1` [Example 13], in data set [1], the minimal effective dose is no more than 10 mg/kg. Further, in data set [2], the selectivity ratio is greater than 4.
In the same order, the values of `Cc1ccc(NC(=N)Nc2ccsc2)c(N(C)C)c1` [Example 14] are no more than 10 mg/kg and no more than 2.
As for `CN(C)c1cc(O)ccc1CNC(=O)NCc1ccsc1` [Example 15], the minimal effective dose in data set [1] fell in the range of 10 to 20 mg/kg. Further, the selectivity ratio in data set [2] was greater than 4.
In the same order, the values of `[2H]C([2H])([2H])N(c1cc(C)ccc1CNC(=O)NCc1ccsc1)C([2H])([2H])[2H]` [Example 17] are no more than 10 mg/kg and 2 to 4.
The matching figures for `Cc1ccc(CNC(=O)NCc2ccsc2)cc1N(C)C` [Example 18]: no more than 10 mg/kg and 2 to 4.
In the same order, the values of `Cc1ccc(CNC(=S)NCc2ccsc2)cc1N(C)C` [Example 19, 1-(3-(dimethylamino)-4-methylbenzyl)-3-(thiophene-3-ylmethyl)thiourea] are no more than 10 mg/kg and no more than 2.
For `Cc1ccc(CNC(=N)NCc2ccsc2)cc1N(C)C` [Example 20, 1-(3-(dimethylamino)-4-methylbenzyl)-3-(thiophen-3-ylmethyl)guanidine], the minimal effective dose in data set [1] is no more than 10 mg/kg. Moreover, the selectivity ratio in data set [2] was no more than 2.
In the case of `Cc1ccc(NC(=N)Nc2ccsc2)cc1N(C)C` [Example 21], the minimal effective dose in data set [1] was no more than 10 mg/kg. The selectivity ratio in data set [2] is greater than 4.
The matching figures for `COC(=O)C(C#N)=C(NCc1ccsc1)NCc1ccc(C)cc1N(C)C` [Example 22]: greater than 30 mg/kg and no more than 2.
In the same order, the values of `Cc1ccc(CNC(=O)NCc2ccco2)c(N(C)C)c1` [Example 23] are greater than 30 mg/kg and no more than 2.
For the compound `CN(C)c1ccccc1CNC(=O)NCc1ccsc1` [Example 24], the minimal effective dose in data set [1] lay in the range of 10 to 20 mg/kg. Further, in data set [2], the selectivity ratio fell in the range of 2 to 4.
In the same order, the values of `Cc1ccc(CNC(=N)NCc2cccs2)c(N(C)C)c1` [Example 26] are greater than 30 mg/kg and no more than 2.
Regarding `CN(C)c1ccccc1CNC(=O)NCc1cccs1` [Example 27], the minimal effective dose in data set [1] is no more than 10 mg/kg. Besides, the selectivity ratio in data set [2] was greater than 4.
The matching figures for `CN(C)c1ccccc1CNC(=S)NCc1cccs1` [Example 28]: greater than 30 mg/kg and no more than 2.
The matching figures for `CN(C)c1cc(C(F)(F)F)ccc1CNC(=O)NCc1cccs1` [Example 29]: no more than 10 mg/kg and no more than 2.
In the same order, the values of `CN(C)c1cccc(CNC(=O)NCc2ccsc2)c1` [Example 30] are 20 to 30 mg/kg and no more than 2.
With `Cc1ccc(CNC(=O)NCc2cccs2)cc1N(C)C` [Example 31], in data set [1], the minimal effective dose was no more than 10 mg/kg. In data set [2], the selectivity ratio was greater than 4.
As to `Cc1ccc(CNC(=S)NCc2cccs2)cc1N(C)C` [Example 32], in data set [1], the minimal effective dose was no more than 10 mg/kg. For the same compound, the selectivity ratio in data set [2] was greater than 4.
In the same order, the values of `Cc1ccc(CNC(=N)NCc2cccs2)cc1N(C)C` [Example 33] are no more than 10 mg/kg and no more than 2.
In the same order, the values of `CN(C)c1cccc(CNC(=O)NCc2cccs2)c1` [Example 34] are 20 to 30 mg/kg and no more than 2.
Consider `Cc1ccc(CNC(=O)NCc2ccoc2)cc1N(C)C` [Example 35], for which the minimal effective dose in data set [1] lay within 20 to 30 mg/kg. Further, the selectivity ratio in data set [2] is 2 to 4.
As to `Cc1ccc(CNC(=O)NCc2ccco2)cc1N(C)C` [Example 36], the minimal effective dose in data set [1] was no more than 10 mg/kg. Further, the selectivity ratio in data set [2] is greater than 4.
Regarding `Cc1ccc(CNC(=O)NCc2ccns2)c(N(C)C)c1` [Example 37], the minimal effective dose in data set [1] is no more than 10 mg/kg. In data set [2], the selectivity ratio is greater than 4.
As for `Cc1ccc(CNC(=O)NCc2cncs2)c(N(C)C)c1` [Example 38], the minimal effective dose in data set [1] lay in the range of 10 to 20 mg/kg. In addition, the selectivity ratio in data set [2] lay within 2 to 4.
Regarding `Cc1ccc(CNC(=O)NCc2nccs2)c(N(C)C)c1` [Example 39], in data set [1], the minimal effective dose is 10 to 20 mg/kg. In data set [2], the selectivity ratio lay in the range of 2 to 4.
For `CN(C)c1ccccc1CNC(=O)NCc1ccns1` [Example 41], the minimal effective dose in data set [1] was greater than 30 mg/kg. The selectivity ratio in data set [2] was no more than 2.
The matching figures for `Cc1ccc(CNC(=O)NCc2ccno2)c(N(C)C)c1` [Example 42]: greater than 30 mg/kg and no more than 2.
In the same order, the values of `Cc1ccc(CNC(=O)NCc2ncc[nH]2)c(N(C)C)c1` [Example 43] are 10 to 20 mg/kg and greater than 4.
Regarding `COC(=O)CCc1ccc(CNC(=O)NCc2ccsc2)c(N(C)C)c1` [Example 44], in data set [1], the minimal effective dose is 10 to 20 mg/kg. For the same compound, the selectivity ratio in data set [2] was no more than 2.
`CNC(=O)CCc1ccc(CNC(=O)NCc2ccsc2)c(N(C)C)c1` [Example 45]: the minimal effective dose in data set [1] is greater than 30 mg/kg. Moreover, the selectivity ratio in data set [2] lay in the range of 2 to 4.
The matching figures for `Cc1ccc(CNC(=O)NCc2nnn[nH]2)c(N(C)C)c1` [Example 46]: greater than 30 mg/kg and no more than 2.
`COc1c(N(C)C)cc(CNC(=O)NCc2ccsc2)cc1N(C)C` [Example 47]: in data set [1], the minimal effective dose is no more than 10 mg/kg. In addition, the selectivity ratio in data set [2] is no more than 2.
In the same order, the values of `CN(C)c1ccc(Oc2ccccc2)cc1CNC(=O)NCc1ccsc1` [Example 48] are no more than 10 mg/kg and 2 to 4.
The matching figures for `Cc1ccc(N(C)C)c(CNC(=O)NCc2ccns2)c1` [Example 49]: greater than 30 mg/kg and 2 to 4.
In the same order, the values of `COC(=O)c1ccc(CNC(=O)NCc2ccc(C)cc2N(C)C)s1` [Example 50] are 20 to 30 mg/kg and no more than 2.
On to `CCCCc1cc(CNC(=O)NCc2ccc(C)cc2N(C)C)cs1` [Example 51], for which the minimal effective dose in data set [1] was no more than 10 mg/kg. The selectivity ratio in data set [2] is 2 to 4.
`CCCCc1cscc1CNC(=O)NCc1ccc(C)cc1N(C)C` [Example 52]: the minimal effective dose in data set [1] is no more than 10 mg/kg. Moreover, the selectivity ratio in data set [2] fell in the range of 2 to 4.
